{
  "source": "patent US20230152324A1",
  "about": "“TUMOR-INTRINSIC NLRP3 INFLAMMASOME SIGNALING PATHWAY AS A GENETIC AND FUNCTIONAL BIOMARKER FOR IMMUNOTHERAPY RESPONSE” (Duke University, priority 2021, published 2023)",
  "test_system": "mice bearing BRAF^V600EPTEN^−/− melanomas",
  "experiment": "Lung fibronectin expression (qrt-PCR, IHC) in BRAFV600EPTEN−/− melanoma-bearing mice",
  "assay_type": "in vivo, mouse",
  "conditions": "anti-PD-1 vs anti-PD-1/Wnti treated tumor-bearing mice",
  "text": "Prior studies have shown that the arrival of […] (HPC) expressing vascular endothelial growth factor receptor-1 (VEGFR1) in the lung as well as increased fibronectin expression by local fibroblasts contribute to the formation of a pre-metastatic niche that subsequently supports metastatic progression (35). Using multi-parameter flow cytometry, we indeed observed an increase in a c-kit^+CD133^+CD34^+VEGFR1^+ HPC (VEGFR1^+ HPC) population in mice harboring BRAF^V600EPTEN^−/− melanomas relative to non-tumor-bearing controls. […]\nSmall representative tissue specimens were harvested from tumors and lungs and stored in RNAlater at −80° C. […] Total RNA was isolated by RNeasy Plus Mini Kit (Qiagen, 74134) and RNA was quantified by NanoDrop. […] All data were normalized to Actb expression and relative gene expression was quantitated based on the 2ΔΔCt method. Relative mRNA levels of the following genes were measured: Cxcl5, Cxcl1, Cxcl2, Trp2, Csf3, Il1b, Fn1, Tgfb, Tgfbr2, Spp1, and Hsp70.\nParaffin-Sections (5-μm) from primary melanomas and lung tissues were processed using standard protocols for immunohistochemistry (IHC) and immunofluorescence (IF) staining. […] PMN-MDSC quantitation by Ly6G-staining, and CD8^+ T cell quantitation by CD8a-staining were performed at 20× magnification and 6-8 random fields were averaged per section over 3-4 sections per specimen. […]",
  "data": [
    {"smiles": "Cn1c(=O)c2c(ncn2CC(=O)Nc2ccc(-c3ccccc3)nn2)n(C)c1=O", "note": "[ETC-159]", "values": [
      {"measurement": "tumor-dependent upregulation of fibronectin expression levels in the lungs", "result": "reversed"}
    ]}
  ]
}
